Source: PubChem BioAssay (NCI)
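Results reflect a 48-hour exposure of cells in 96-well plates to compound at five concentrations. TGI is the concentration that stops growth completely.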

Columns and labels:
Experiment in all cases: inhibition of tumour cell growth, NCI panel, 48 h
[1] = tested on: 786-0 renal
[2] = tested on: CAKI-1 renal
[3] = tested on: CCRF-CEM leukemia
[4] = tested on: DU-145 prostate
[5] = tested on: EKVX NSCLC
[6] = tested on: HCT-116 colon
[7] = tested on: IGROV1 ovarian
[8] = tested on: OVCAR-8 ovarian
[9] = tested on: SK-MEL-5 melanoma
[10] = tested on: UACC-62 melanoma

SMILES	TGI [1] [µM]	TGI [2] [µM]	TGI [3] [µM]	TGI [4] [µM]	TGI [5] [µM]	TGI [6] [µM]	TGI [7] [µM]	TGI [8] [µM]	TGI [9] [µM]	TGI [10] [µM]
Cc1c(C)c2c(c(N)c1C#N)C(=O)N(O)C2=O	> 100	> 100	> 100	> 100	> 100	> 100	> 100	> 100	> 100	> 100
CCOC(=O)c1c[nH]c(C(=O)OCC)c1-c1cccn1-c1ccccc1	> 100	67.7	52.2	> 100	> 100	30.3	51.9	59.6	28.4	38.9
CC1(C)C2CCC3CC(CCC#N)CCC3C21C#N (stereo not given)	> 100	> 100	> 100	> 100	> 100	> 100	> 100	> 100	> 100	> 100
O=C1NC2NC3NC(=O)NC3NC2N1 (stereo not given)	> 100	> 100	> 100	> 100	> 100	> 100	> 100	> 100	> 100	> 100
COc1nc(N=P(c2ccccc2)(c2ccccc2)c2ccccc2)cc(=O)n1C	> 100	> 100	> 100	> 100	> 100	> 100	> 100	> 100	> 100	> 100
CN(C)c1ccc(/C=C/C(=O)c2ccc(O)cc2)cc1	> 78.3	> 100	17.4	63.5	> 100	> 68	> 100	> 100	23.3	19.3
FC(F)(F)c1ccccc1C1SCC2=Nc3ccccc3CN21 (stereo not given)	24.2	> 100	95	25.4	24.9	23.1	29.7	30.5	27.9	26.1
O=c1[nH]/c(=C/c2ccc3c(c2)OCO3)c(=O)[nH]/c1=C/c1ccc2c(c1)OCO2	> 10	> 10	> 10	> 10	> 10	> 10	> 10	> 10	> 10	> 10
